Data published in ChEMBL document CHEMBL1641382, “New imidazoline/α(2)-adrenoceptors affecting compounds-4(5)-(2-aminoethyl)imidazoline (dihydrohistamine) derivatives. Synthesis and receptor affinity studies” (Bioorg Med Chem, 2011).

Columns and labels:
[1] = Inhibition of Wistar rat imidazoline I2 receptor
Nischarin = Nischarin (Rattus norvegicus, UniProt Q4G017); experiment: Inhibition of Sprague-Dawley rat imidazoline I1 receptor
[2] = Inhibition of Sprague-Dawley rat imidazoline I2 receptor
[3] = molecular target: T1, Adrenergic receptor alpha-2 (Rattus norvegicus, UniProt P22086+P19328+P22909); experiment: Inhibition of Sprague-Dawley rat alpha-2 adrenergic receptor
T1 sequence (P22086 whole entry): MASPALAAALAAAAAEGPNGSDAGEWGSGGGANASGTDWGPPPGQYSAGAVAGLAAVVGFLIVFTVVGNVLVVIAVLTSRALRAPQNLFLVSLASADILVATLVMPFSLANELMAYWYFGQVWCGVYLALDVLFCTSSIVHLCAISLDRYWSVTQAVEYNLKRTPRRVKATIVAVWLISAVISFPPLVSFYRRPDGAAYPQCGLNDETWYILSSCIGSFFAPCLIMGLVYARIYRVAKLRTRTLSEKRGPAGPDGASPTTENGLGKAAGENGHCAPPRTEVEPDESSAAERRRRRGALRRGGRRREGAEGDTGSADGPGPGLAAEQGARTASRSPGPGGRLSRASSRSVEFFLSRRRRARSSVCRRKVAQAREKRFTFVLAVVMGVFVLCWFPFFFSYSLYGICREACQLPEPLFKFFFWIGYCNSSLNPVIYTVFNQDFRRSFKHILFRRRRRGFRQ
T1 sequence (P19328 whole entry): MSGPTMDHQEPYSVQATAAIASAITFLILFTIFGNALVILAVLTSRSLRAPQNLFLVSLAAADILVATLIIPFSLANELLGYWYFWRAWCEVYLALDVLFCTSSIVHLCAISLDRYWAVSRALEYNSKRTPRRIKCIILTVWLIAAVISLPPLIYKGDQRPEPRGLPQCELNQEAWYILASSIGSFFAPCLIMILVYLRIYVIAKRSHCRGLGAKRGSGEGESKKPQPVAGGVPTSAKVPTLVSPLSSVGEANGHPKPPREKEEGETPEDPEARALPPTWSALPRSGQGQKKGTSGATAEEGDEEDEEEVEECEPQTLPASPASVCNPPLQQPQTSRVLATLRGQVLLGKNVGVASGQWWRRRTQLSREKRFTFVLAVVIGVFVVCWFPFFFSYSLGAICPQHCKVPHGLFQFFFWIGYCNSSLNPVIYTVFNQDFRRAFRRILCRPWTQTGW
T1 sequence (P22909 whole entry): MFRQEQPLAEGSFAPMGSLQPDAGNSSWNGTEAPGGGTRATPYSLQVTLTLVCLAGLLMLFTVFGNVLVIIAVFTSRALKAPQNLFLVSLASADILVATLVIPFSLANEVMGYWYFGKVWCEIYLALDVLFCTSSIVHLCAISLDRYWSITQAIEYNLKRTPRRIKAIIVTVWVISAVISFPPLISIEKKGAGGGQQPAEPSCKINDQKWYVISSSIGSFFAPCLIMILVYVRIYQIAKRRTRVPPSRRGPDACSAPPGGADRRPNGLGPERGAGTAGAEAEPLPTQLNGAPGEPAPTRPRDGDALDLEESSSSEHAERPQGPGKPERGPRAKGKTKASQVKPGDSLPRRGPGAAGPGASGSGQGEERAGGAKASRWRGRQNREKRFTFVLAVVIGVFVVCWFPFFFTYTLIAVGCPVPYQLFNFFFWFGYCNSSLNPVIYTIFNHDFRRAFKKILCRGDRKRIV

Nischarin, sequence (Q4G017 whole entry): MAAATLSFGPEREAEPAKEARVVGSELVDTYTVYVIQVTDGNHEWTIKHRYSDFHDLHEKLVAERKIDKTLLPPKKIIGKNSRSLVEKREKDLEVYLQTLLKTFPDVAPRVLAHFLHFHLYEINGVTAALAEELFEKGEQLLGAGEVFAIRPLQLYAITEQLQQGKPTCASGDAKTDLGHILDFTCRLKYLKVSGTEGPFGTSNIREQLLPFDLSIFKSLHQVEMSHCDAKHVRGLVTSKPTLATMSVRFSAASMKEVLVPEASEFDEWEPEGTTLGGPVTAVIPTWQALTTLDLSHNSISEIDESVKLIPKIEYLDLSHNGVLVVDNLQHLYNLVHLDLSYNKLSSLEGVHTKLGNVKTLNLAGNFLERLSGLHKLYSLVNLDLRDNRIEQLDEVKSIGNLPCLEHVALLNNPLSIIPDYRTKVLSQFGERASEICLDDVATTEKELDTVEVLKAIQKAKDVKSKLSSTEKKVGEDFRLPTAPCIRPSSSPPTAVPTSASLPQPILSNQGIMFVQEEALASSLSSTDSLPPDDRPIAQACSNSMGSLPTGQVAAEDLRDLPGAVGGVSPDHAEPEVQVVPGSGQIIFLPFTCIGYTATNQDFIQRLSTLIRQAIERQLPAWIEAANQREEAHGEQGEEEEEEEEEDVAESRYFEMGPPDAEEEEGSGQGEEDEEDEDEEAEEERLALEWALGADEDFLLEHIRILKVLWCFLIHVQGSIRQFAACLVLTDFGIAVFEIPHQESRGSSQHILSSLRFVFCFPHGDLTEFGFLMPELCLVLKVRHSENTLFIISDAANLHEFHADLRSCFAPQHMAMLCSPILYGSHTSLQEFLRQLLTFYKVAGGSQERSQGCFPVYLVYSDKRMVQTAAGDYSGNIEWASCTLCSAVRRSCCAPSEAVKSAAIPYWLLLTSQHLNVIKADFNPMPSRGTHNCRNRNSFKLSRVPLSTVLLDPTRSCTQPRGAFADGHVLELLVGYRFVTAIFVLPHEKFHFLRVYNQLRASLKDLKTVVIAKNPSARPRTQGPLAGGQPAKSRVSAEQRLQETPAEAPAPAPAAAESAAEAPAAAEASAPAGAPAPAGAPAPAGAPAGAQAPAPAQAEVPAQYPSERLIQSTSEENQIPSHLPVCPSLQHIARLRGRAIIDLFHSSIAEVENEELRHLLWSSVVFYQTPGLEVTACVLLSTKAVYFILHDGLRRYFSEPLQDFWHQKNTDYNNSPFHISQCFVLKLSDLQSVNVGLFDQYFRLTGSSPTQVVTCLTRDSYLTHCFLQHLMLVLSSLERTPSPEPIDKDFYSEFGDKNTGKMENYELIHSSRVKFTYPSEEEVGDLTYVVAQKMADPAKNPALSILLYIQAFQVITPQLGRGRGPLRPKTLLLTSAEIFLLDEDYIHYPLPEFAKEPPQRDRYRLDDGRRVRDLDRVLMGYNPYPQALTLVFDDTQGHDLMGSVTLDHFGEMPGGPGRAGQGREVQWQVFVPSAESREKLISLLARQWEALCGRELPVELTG

| SMILES | Ki [1] | IC50 (Nischarin) | Ki [2] | Ki [3] |
| --- | --- | --- | --- | --- |
| NCCCCN=C(N)N [AGMATINE] | 417 µM |  |  |  |
| Br.CCC1(C2=N[C@H](CCN)CN2)Cc2ccccc2O1 (stereo partly drawn) |  | 32.5 µM | 18.9 µM | 0.869 µM |
| Cl.Cl.NCC[C@H]1CNC(NC(C2CC2)C2CC2)=N1 |  | > 100 µM | 28 µM | 5.727 µM |
| Br.NCC[C@H]1CNC(C2COc3ccccc3O2)=N1 (stereo partly drawn) |  | 5.11 µM | 8.12 µM | 24.02 µM |
| Br.NCC[C@H]1CNC(Cc2ccccc2)=N1 |  | 278 µM | 59.4 µM | 23.32 µM |
| Br.NCC[C@H]1CNC(Nc2ccc(Br)cc2)=N1 |  | 59.4 µM | 81.2 µM | 25.8 µM |
| Br.NCC[C@@H]1CNC(Nc2ccc(Cl)cc2Cl)=N1 |  | 6.33 µM | 92.5 µM | 16.92 µM |
| Br.COc1ccc(NC2=N[C@@H](CCN)CN2)cc1 |  | 79.8 µM | 24.9 µM | 9.376 µM |
| Br.CCC1(C2=N[C@@H](CCN)CN2)Cc2ccccc2O1 (stereo partly drawn) |  | 1.01 µM | 2.55 µM | 20.35 µM |
| Br.NCC[C@H]1CNC(/C=C/c2ccccc2)=N1 |  | 17.2 µM | 11.2 µM | 3.896 µM |
| Br.NCC[C@H]1CNC(Nc2ccc(Cl)cc2Cl)=N1 |  | 1.48 µM | 1.76 µM | 0.854 µM |
| Br.NCC[C@@H]1CNC(Nc2cccc(C(F)(F)F)c2)=N1 |  | 1.25 µM | 47.7 µM | 26.69 µM |
| Br.NCC[C@@H]1CNC(C2COc3ccccc3O2)=N1 (stereo partly drawn) |  | 2.65 µM | 9.61 µM | 5.412 µM |
| Br.NCC[C@H]1CNC(CN(Cc2ccccc2)c2ccccc2)=N1 |  | 11.6 µM | 19.1 µM | 481.8 µM |
| Br.NCC[C@H]1CNC(c2ccccc2F)=N1 |  | 117 µM | 27.6 µM | 178.6 µM |
| Clc1cccc(Cl)c1NC1=NCCN1 [CLONIDINE] |  |  | 0.364 µM |  |
| Br.Cc1cccc(NC2=N[C@H](CCN)CN2)n1 |  | 8.51 µM | 39.6 µM | 4.907 µM |
| Br.NCC[C@H]1CNC(Nc2cccc(C(F)(F)F)c2)=N1 |  | 1.31 µM | 12.7 µM | 3.007 µM |
| Br.NCC[C@H]1CNC(NCc2ccccc2)=N1 |  | 101 µM | 7.5 µM | 5.539 µM |
| Br.NCC[C@H]1CNC(Nc2cccc(Cl)c2)=N1 |  | 33.9 µM | 20.3 µM | 7.018 µM |
| Br.Cc1cccc(NC2=N[C@@H](CCN)CN2)n1 |  | 7.78 µM | 15.7 µM | 0.445 µM |
| Br.NCC[C@H]1CNC(Nc2c(Cl)cccc2Cl)=N1 |  | 7.75 µM | 2.43 µM | 1.899 µM |
| Br.NCC[C@@H]1CNC(Cc2cccc3ccccc23)=N1 |  | 583 µM | 46.3 µM | 83.77 µM |
| Br.NCC[C@H]1CNC(Cc2cccc3ccccc23)=N1 |  | > 100 µM | 1 µM | 0.964 µM |
| Br.NCC[C@H]1CNC(c2ccccc2)=N1 |  | 72.9 µM | 3.56 µM | 43.07 µM |
| Br.NCC[C@H]1CNC(Nc2c(F)cccc2F)=N1 |  | 93.1 µM | 21.8 µM | 13.06 µM |
| Br.NCC[C@H]1CNC(Nc2ccccc2Br)=N1 |  | 3.7 µM | 18.8 µM | 1.553 µM |
| Br.NCC[C@@H]1CNC(Nc2c(Cl)cccc2Cl)=N1 |  | 2.72 µM | 9.56 µM | 4.315 µM |
| Br.NCC[C@H]1CNC(Nc2cccnc2)=N1 |  | > 1000 µM | > 1000 µM | 19.66 µM |
